{"source": "ChEMBL document CHEMBL1150885", "about": "“Antibacterial activity of lonchocarpol A” (J Nat Prod, 1998)", "key": {"L1210 [1]": {"system": "L1210", "assay": "Cytotoxicity against mouse L1210 cells after 24 hrs by trypan blue assay", "format": "functional, cell-based", "conditions": "L1210, 24 h"}, "Priestia megaterium [2]": {"system": "Priestia megaterium", "assay": "Inhibition of cell wall synthesis in Bacillus megaterium Mb 410 assessed as [2,6-3H]diaminopimelic incorporation by scintillation counting", "format": "functional, organism-based"}, "Staphylococcus aureus [3]": {"system": "Staphylococcus aureus", "assay": "Antibacterial activity against methicillin-resistant Staphylococcus aureus after 24 hrs by broth microtiter susceptibility assay in presence of mouse plasma", "format": "functional"}, "Priestia megaterium [4]": {"system": "Priestia megaterium", "assay": "Inhibition of protein synthesis in Bacillus megaterium Mb 410 assessed as L-[4,5-3H]leucine incorporation by scintillation counting", "format": "functional, organism-based"}, "Enterococcus faecium [5]": {"system": "Enterococcus faecium", "assay": "Antibacterial activity against vancomycin-resistant Enterococcus faecium after 24 hrs by broth microtiter susceptibility assay in presence of mouse plasma", "format": "functional"}, "[6]": {"assay": "Toxicity in defibrinated sheep RBC assessed as minimum lytic concentration causing hemolysis after 2 hrs by liquid microtiter assay", "format": "cell-based, Ovis aries", "conditions": "erythrocyte"}, "[7]": {"system": "Mycolicibacterium smegmatis", "assay": "Antibacterial activity against Mycobacterium smegmatis after 24 hrs by broth microtiter susceptibility assay in absence of mouse plasma", "format": "functional"}, "[8]": {"system": "Mycolicibacterium smegmatis", "assay": "Antibacterial activity against Mycobacterium smegmatis after 24 hrs by broth microtiter susceptibility assay in presence of mouse plasma", "format": "functional"}, "Enterococcus faecium [9]": {"system": "Enterococcus faecium", "assay": "Antibacterial activity against vancomycin-resistant Enterococcus faecium after 24 hrs by broth microtiter susceptibility assay in absence of mouse plasma", "format": "functional"}, "L1210 [10]": {"system": "L1210", "assay": "Cytotoxicity against mouse L1210 cells by MTT assay", "format": "functional, cell-based"}, "Priestia megaterium [11]": {"system": "Priestia megaterium", "assay": "Inhibition of DNA synthesis in Bacillus megaterium Mb 410 assessed as [6-3H]thymidine incorporation by scintillation counting", "format": "functional, organism-based"}, "Priestia megaterium [12]": {"system": "Priestia megaterium", "assay": "Inhibition of RNA synthesis in Bacillus megaterium Mb 410 assessed as [5,6-3H]uracil incorporation by scintillation counting", "format": "functional, organism-based"}, "Staphylococcus aureus [13]": {"system": "Staphylococcus aureus", "assay": "Antibacterial activity against methicillin-resistant Staphylococcus aureus after 24 hrs by broth microtiter susceptibility assay in absence of mouse plasma", "format": "functional"}, "Priestia megaterium [14]": {"system": "Priestia megaterium", "assay": "Antibacterial activity against Bacillus megaterium Mb 410 after 24 hrs by broth microtiter susceptibility assay in absence of mouse plasma", "format": "functional"}}}
{"compound": "CC(C)=CCc1c(O)c(CC=C(C)C)c2c(c1O)C(=O)C[C@@H](c1ccc(O)cc1)O2", "note": "[LONCHOCARPOL A]", "values": [{"measurement": "IC50", "setting": "L1210 [1]", "value": 10, "unit": "µg/mL"}, {"measurement": "IC50", "setting": "Priestia megaterium [2]", "value": 1.9, "unit": "µg/mL"}, {"measurement": "MIC", "setting": "Staphylococcus aureus [3]", "value": "≥ 100", "unit": "µg/mL"}, {"measurement": "IC50", "setting": "Priestia megaterium [4]", "value": 2.5, "unit": "µg/mL"}, {"measurement": "MIC", "setting": "Enterococcus faecium [5]", "value": "≥ 100", "unit": "µg/mL"}, {"measurement": "Activity", "setting": "[6]", "value": ">= 100 ug ml-1"}, {"measurement": "MIC", "setting": "[7]", "value": "> 100", "unit": "µg/mL"}, {"measurement": "MIC", "setting": "[8]", "value": "≥ 100", "unit": "µg/mL"}, {"measurement": "MIC", "setting": "Enterococcus faecium [9]", "value": 0.78, "unit": "µg/mL"}, {"measurement": "IC50", "setting": "L1210 [10]", "value": "> 10", "unit": "µg/mL"}, {"measurement": "IC50", "setting": "Priestia megaterium [11]", "value": 3.9, "unit": "µg/mL"}, {"measurement": "IC50", "setting": "Priestia megaterium [12]", "value": 1.9, "unit": "µg/mL"}, {"measurement": "MIC", "setting": "Staphylococcus aureus [13]", "value": 0.78, "unit": "µg/mL"}, {"measurement": "MIC", "setting": "Priestia megaterium [14]", "value": 1, "unit": "µg/mL"}]}
